# How the values were obtained:
# C57BL/6J mice = experiment: Morris Water Maze (MWM); format: in vivo, mouse; settings: i.p., OS 2 mg/kg
# Description: Animal housing. Forty-eight Male C57BL/6J mice were purchased from Janvier Labs (Le Genest-Saint-Isle, France) and were time-specifically housed in a 12 h light-dark cycle (lights on at 7 am), with ad libitum water and food in conditioned rooms (22 °C, humidity ~60%).
# Behavior assays. All mice were subjected to a behavioral test battery that consisted of several general performance tasks of locomotor activity, exploratory and anxiety-like behavior, and learning and memory. Mice were divided into four groups: Vehicle, OS (2 mg/kg), WIN55 (0.5 mg/kg), or OS + WIN. Each group consisted of 7–14 mice that received two i.p injections before each test, with a 10 min interval between each injection. Veh + Veh were injected with PBS. Veh + WIN were injected with PBS and WIN55. Veh + OS were injected with PBS and OS. OS + WIN were injected with OS and WIN55. PBS was used as vehicle as it was used for dilution of drugs. Tests were performed in the order described below after 10 min of the last injection, with a 24 h interval between each test.
# Morris Water Maze (MWM): MWM [32] was used to assess the effects of OS, WIN, and OS + WIN in memory one day after the EPM test. MWM is a gold standard test to assess learning and memory consisting of 10 days of training and two probe trials in a pool with water at a temperature of 26 °C, with one submersed platform invisible to mice. Each mouse could try to find the platform for 100 s, four times per day, with an inter-trial interval of 15–30 min. In each trial, animals were released randomly from each of the four starting positions. This protocol of training was repeated for ten days (training sessions). The platform was removed on the 6th and 11th days, and the animals were left free to swim for 100 s (probe trials). Right after the first probe trial (day 6), animals were trained again with the platform at the same place. During the training sessions, the mean latency to find the platform for the session was calculated for each animal as the average of the four trials of the day. During the probe trials, the pool was divided into four equal virtual quadrants, and the time spent in the target quadrant (TQ) (i.e., the quadrant where the platform was located during the training sessions) was assessed as a measure of memory retention. For this test, we used Veh (n = 9), OS (n = 8), WIN (n = 8), OS + WIN (n = 14).
# TRPV1 = biological target: T1, TRPV1 (Homo sapiens, UniProt Q8NER1); format: cell-based
# T1 construct: expressed in transfected cells; host or cells: Xenopus laevis oocytes (cRNA injection)
# T1 sequence (Q8NER1 whole entry): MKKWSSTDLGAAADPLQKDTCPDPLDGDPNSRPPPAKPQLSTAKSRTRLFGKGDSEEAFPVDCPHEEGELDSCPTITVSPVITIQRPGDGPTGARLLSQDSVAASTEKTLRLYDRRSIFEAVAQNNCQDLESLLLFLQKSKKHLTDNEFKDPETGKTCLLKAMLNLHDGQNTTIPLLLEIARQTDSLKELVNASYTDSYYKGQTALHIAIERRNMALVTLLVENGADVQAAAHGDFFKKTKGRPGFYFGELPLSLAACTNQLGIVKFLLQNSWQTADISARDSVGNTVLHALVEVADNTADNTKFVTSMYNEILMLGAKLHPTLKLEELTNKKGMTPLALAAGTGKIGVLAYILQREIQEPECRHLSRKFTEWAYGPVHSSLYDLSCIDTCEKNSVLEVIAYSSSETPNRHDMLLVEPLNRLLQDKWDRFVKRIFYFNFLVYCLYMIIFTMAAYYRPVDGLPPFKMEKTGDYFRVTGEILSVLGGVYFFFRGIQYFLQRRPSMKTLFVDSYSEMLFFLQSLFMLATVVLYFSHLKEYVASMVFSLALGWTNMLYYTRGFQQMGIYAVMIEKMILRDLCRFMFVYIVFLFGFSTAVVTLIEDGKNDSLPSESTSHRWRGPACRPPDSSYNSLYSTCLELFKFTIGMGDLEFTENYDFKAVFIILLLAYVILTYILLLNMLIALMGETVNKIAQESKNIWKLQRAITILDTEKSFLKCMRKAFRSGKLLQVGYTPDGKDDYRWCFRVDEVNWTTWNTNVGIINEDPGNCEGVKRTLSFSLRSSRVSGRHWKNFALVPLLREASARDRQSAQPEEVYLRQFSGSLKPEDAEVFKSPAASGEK
compound,measurement,setting,value
"CCCCCCCC/C=C\CCCCCCCC(=O)NCCc1c[nH]c2ccc(O)cc12 [OS, oleoyl serotonin]","Time spent in the target quadrant (TQ), first probe trial",C57BL/6J mice; 100 s trial,more than 25 s
same,Performance in first probe trial vs control (time in target quadrant),C57BL/6J mice; day 6,performed worse than the control
same,Activity in selectivity screening,TRPV1,did not show significant activity

# — paper PMC10887214 (Biomedicines, 2024)
